Source: patent US10550144B2, “6-aryl-9-glycosylpurines and use thereof” (UNIVERZITA PALACKEHO V OLOMOUCI, priority 2014, dated 2020)

How the values were obtained:
[1] = tested on: Amelanchier alnifolia nodal explants; assay: Micropropagation growth response with BAP, Amelanchier alnifolia; conditions: after 35 days in vitro, N = 9
[2] = tested on: Harpagophytum procumbens nodal explants; assay: Micropropagation growth response with BAP, Harpagophytum procumbens; conditions: after 35 days in vitro, N = 12
[3] = tested on: Dais cotinifolia shoot-tip explants; assay: Shoot multiplication and shoot-tip necrosis in shoot cultures of Dais cotinifolia; assay type: in vivo; conditions: after 8 weeks of culture
Procedure: Explants were washed thoroughly with 0.1% (v/v) of Tween® 20 for 2 min, and decontaminated with 70% ethanol for 15 sec followed by 0.2% aqueous HgCl2 for 10 min. The explants were rinsed five times with sterile distilled water. […] Each value was presented as the mean±standard error, with three replicates; each replicate consisting of 15 explants per treatment.

[4] = tested on: Gymnosporia buxifolia shoot-tip explants; assay: Shoot-tip necrosis in in vitro cultures of Gymnosporia buxifolia; conditions: after 4 weeks of culture
[5] = tested on: Triticum aestivum cv. Hereward detached leaf segments; assay: Senescence bioassay on detached wheat leaf segments (chlorophyll retention); assay type: in vivo; conditions: for maximum effective concentration: 96 h incubation in the dark at 25° C., tested 10^−8 M to 10^−4 M
Procedure: Seeds of winter wheat, Triticum aestivum cv. Hereward, were washed under running water for 24 hours and then sown on vermiculite soaked with Knop's solution. They were placed in the growth chamber at 25° C. with a 16/8 h light period at 50 μmol·m^−2·s^−1. After 7 days, the first leaf was fully developed and the second leaf had started to grow. A tip section of the first leaf, approximately 35 mm long, was removed from 5 seedlings and trimmed slightly to a combined weight of 100 mg. The basal ends of the five leaf tips were placed in the wells of a microtiter polystyrene plate containing 150 μL of the tested derivative solution each. The entire plate was inserted into a plastic box lined with paper tissues soaked in distilled water to prevent leaf sections from drying out. After 96 h incubation in the dark at 25° C., the leaves were removed and chlorophyll extracted by heating at 80° C. for 10 min in 5 mL of 80% ethanol (v/v). The sample volume was then restored to 5 mL by the addition of 80% ethanol (v/v). The absorbance of the extract was recorded at 665 nm. In addition, chlorophyll extracts from fresh leaves and leaf tips incubated in deionised water were measured. The results are means of five replicates and the entire test was repeated twice. […] The compounds to be tested were dissolved in dimethylsulfoxide (DMSO) and the solution brought up to 10^−3M with distilled water. […] The activity obtained for 10^−4 M of BAP was postulated as 100%.

[6] = 10 μM BAP alone (Treatment No. 2)

c1ccc(CNc2ncnc3nc[nH]c23)cc1 [BA, 6-benzylaminopurine, reference compound] was tested, and the “Fresh weight (g) mean SE” value [1, 6] was 0.319 ± 0.1255 g, the “Shoot length (mm) mean SE” value [1, 6] was 17.22 ± 1.770 mm and the “Shoot no. mean SE” value [1, 6] was 7.7 ± 2.65. The “Fresh weight (g) mean SE” value [2, 6] was 0.3614 ± 0.05563 g, the “Shoot length (mm) mean SE” value [2, 6] was 19.4 ± 1.529 mm and the “Shoot no. mean SE” value [2, 6] was 1.5 ± 0.167. The Morphogenesis in vitro ([3]; 10 μM in MS medium) was “Dark green shoots + SBI”, the “STN [%] (shoot-tip necrosis)” value ([3]; 10 μM in MS medium) was 61.5 ± 1.02a % and the “Shoot length [cm]” value ([3]; 10 μM in MS medium) was 1.52 ± 0.26bc cm. For the same molecule, the “Shoots [explant^−1] […]” value ([3]; 10 μM in MS medium) was 3.4 ± 0.37a explant^−1, the “STN [%] (shoot-tip necrosis)” value ([4]; 10 μM in MS medium) was 73.3 ± 0.20a % and the “Shoot length [cm]” value ([4]; 10 μM in MS medium) was 1.92 ± 0.09b cm. For the same molecule, the “Shoots [explant^−1] […]” value ([4]; 10 μM in MS medium) was 1.0 ± 0.0a explant^−1.
For OC[C@H]1O[C@@H](n2cnc3c(NCc4cccc(I)c4)ncnc32)[C@@H](O)[C@@H]1O [6-(3-iodobenzylamino)-9-β-D-arabinofuranosylpurine], the maximum effective concentration [5] was 10^−4 mol · l^−1.
In the case of OC[C@H]1O[C@@H](n2cnc3c(NCc4ccccc4F)ncnc32)[C@@H](O)[C@@H]1O [Example 2FBAPA, 6-(2-fluorobenzylamino)-9-β-D-arabinofuranosylpurine], the “Fresh weight (g) mean SE” value ([1]; 5 μM compound with 10 μM BAP) was 0.178 ± 0.0428 g, the “Shoot length (mm) mean SE” value ([1]; 5 μM compound with 10 μM BAP) was 14.33 ± 2.754 mm and the “Shoot no. mean SE” value ([1]; 5 μM compound with 10 μM BAP) was 7.2 ± 1.41. For the same molecule, the “Fresh weight (g) mean SE” value ([1]; 10 μM compound with 10 μM BAP) was 0.529 ± 0.1739 g, the “Shoot length (mm) mean SE” value ([1]; 10 μM compound with 10 μM BAP) was 14.67 ± 1.291 mm and the “Shoot no. mean SE” value ([1]; 10 μM compound with 10 μM BAP) was 13.2 ± 3.44. The “Fresh weight (g) mean SE” value ([1]; 20 μM compound with 10 μM BAP) was 0.492 ± 0.0593 g, the “Shoot length (mm) mean SE” value ([1]; 20 μM compound with 10 μM BAP) was 19.33 ± 2.571 mm and the “Shoot no. mean SE” value ([1]; 20 μM compound with 10 μM BAP) was 15.4 ± 1.62. The “Fresh weight (g) mean SE” value ([1]; 30 μM compound with 10 μM BAP) was 0.584 ± 0.1564 g, the “Shoot length (mm) mean SE” value ([1]; 30 μM compound with 10 μM BAP) was 16.44 ± 2.369 mm and the “Shoot no. mean SE” value ([1]; 30 μM compound with 10 μM BAP) was 14.9 ± 2.40. For the same molecule, the “Fresh weight (g) mean SE” value ([2]; 5 μM compound with 10 μM BAP) was 0.8764 ± 0.1818 g, the “Shoot length (mm) mean SE” value ([2]; 5 μM compound with 10 μM BAP) was 19.8 ± 3.2721 mm and the “Shoot no. mean SE” value ([2]; 5 μM compound with 10 μM BAP) was 1.7 ± 0.335. For the same molecule, the “Fresh weight (g) mean SE” value ([2]; 10 μM compound with 10 μM BAP) was 0.6712 ± 0.1149 g, the “Shoot length (mm) mean SE” value ([2]; 10 μM compound with 10 μM BAP) was 23.9 ± 3.195 mm and the “Shoot no. mean SE” value ([2]; 10 μM compound with 10 μM BAP) was 2.5 ± 0.477. The “Fresh weight (g) mean SE” value ([2]; 20 μM compound with 10 μM BAP) was 0.8935 ± 0.231 g, the “Shoot length (mm) mean SE” value ([2]; 20 μM compound with 10 μM BAP) was 34.9 ± 5.608 mm and the “Shoot no. mean SE” value ([2]; 20 μM compound with 10 μM BAP) was 2.8 ± 0.291. The “Fresh weight (g) mean SE” value ([2]; 30 μM compound with 10 μM BAP) was 0.6877 ± 0.1009 g, the “Shoot length (mm) mean SE” value ([2]; 30 μM compound with 10 μM BAP) was 23.7 ± 2.937 mm and the “Shoot no. mean SE” value ([2]; 30 μM compound with 10 μM BAP) was 2.4 ± 0.267. For the same molecule, the Morphogenesis in vitro ([3]; 5 μM in MS medium) was “Pale green shoots”, the “STN [%] (shoot-tip necrosis)” value ([3]; 5 μM in MS medium) was 33.3 ± 0.74e % and the “Shoot length [cm]” value ([3]; 5 μM in MS medium) was 1.12 ± 0.12bc cm. The “Shoots [explant^−1] […]” value ([3]; 5 μM in MS medium) was 1.0 ± 0.00c explant^−1, the Morphogenesis in vitro ([3]; 10 μM in MS medium) was “Pale green shoots” and the “STN [%] (shoot-tip necrosis)” value ([3]; 10 μM in MS medium) was 31.5 ± 1.18ef %. The “Shoot length [cm]” value ([3]; 10 μM in MS medium) was 1.54 ± 0.16bc cm, the “Shoots [explant^−1] […]” value ([3]; 10 μM in MS medium) was 1.6 ± 0.24bc explant^−1 and the Morphogenesis in vitro ([3]; 20 μM in MS medium) was “Green shoots”. The “STN [%] (shoot-tip necrosis)” value ([3]; 20 μM in MS medium) was 27.7 ± 0.74g %, the “Shoot length [cm]” value ([3]; 20 μM in MS medium) was 1.90 ± 0.14ab cm and the “Shoots [explant^−1] […]” value ([3]; 20 μM in MS medium) was 2.0 ± 0.32b explant^−1. For the same molecule, the Morphogenesis in vitro ([3]; 30 μM in MS medium) was “Green shoots”, the “STN [%] (shoot-tip necrosis)” value ([3]; 30 μM in MS medium) was 20.0 ± 0.44h % and the “Shoot length [cm]” value ([3]; 30 μM in MS medium) was 2.40 ± 0.27a cm. For the same molecule, the “Shoots [explant^−1] […]” value ([3]; 30 μM in MS medium) was 2.3 ± 0.37b explant^−1, the “STN [%] (shoot-tip necrosis)” value ([4]; 5 μM in MS medium) was 66.7 ± 0.32b % and the “Shoot length [cm]” value ([4]; 5 μM in MS medium) was 1.02 ± 0.15bc cm. The “Shoots [explant^−1] […]” value ([4]; 5 μM in MS medium) was 1.0 ± 0.0a explant^−1, the “STN [%] (shoot-tip necrosis)” value ([4]; 10 μM in MS medium) was 58.0 ± 0.40c % and the “Shoot length [cm]” value ([4]; 10 μM in MS medium) was 1.82 ± 0.13b cm. For the same molecule, the “Shoots [explant^−1] […]” value ([4]; 10 μM in MS medium) was 1.0 ± 0.0a explant^−1, the “STN [%] (shoot-tip necrosis)” value ([4]; 20 μM in MS medium) was 42.0 ± 1.20f % and the “Shoot length [cm]” value ([4]; 20 μM in MS medium) was 3.20 ± 0.17a cm. For the same molecule, the “Shoots [explant^−1] […]” value ([4]; 20 μM in MS medium) was 1.0 ± 0.0a explant^−1, the “STN [%] (shoot-tip necrosis)” value ([4]; 30 μM in MS medium) was 26.6 ± 0.37h % and the “Shoot length [cm]” value ([4]; 30 μM in MS medium) was 2.98 ± 0.12a cm. The “Shoots [explant^−1] […]” value ([4]; 30 μM in MS medium) was 1.0 ± 0.0a explant^−1.
OC[C@H]1O[C@@H](n2cnc3c(NCc4cccc(Br)c4)ncnc32)[C@@H](O)[C@@H]1O [6-(3-bromobenzylamino)-9-β-D-arabinofuranosylpurine] was tested, and the maximum effective concentration [5] was 10^−4 mol · l^−1.
With COc1ccc(CNc2ncnc3c2ncn3[C@@H]2O[C@H](CO)[C@@H](O)[C@@H]2O)cc1OC [6-(3,4-dimethoxybenzylamino)-9-β-D-arabinofuranosylpurine] the maximum effective concentration [5] was 10^−4 mol · l^−1.
In the case of OC[C@H]1O[C@@H](n2cnc3c(NCc4cccc(F)c4)ncnc32)[C@@H](O)[C@@H]1O [6-(3-fluorobenzylamino)-9-β-D-arabinofuranosylpurine], the maximum effective concentration [5] was 10^−4 mol · l^−1.
For OC[C@H]1O[C@@H](n2cnc3c(NCc4ccc(Br)cc4)ncnc32)[C@@H](O)[C@@H]1O [6-(4-bromobenzylamino)-9-β-D-arabinofuranosylpurine], the maximum effective concentration [5] was 10^−4 mol · l^−1.
OC[C@H]1O[C@@H](n2cnc3c(NCc4cccc(Cl)c4)ncnc32)[C@@H](O)[C@@H]1O [6-(3-chlorobenzylamino)-9-β-D-arabinofuranosylpurine] was tested, and the maximum effective concentration [5] was 10^−4 mol · l^−1.
In the case of OC[C@H]1O[C@@H](n2cnc3c(NCc4ccccc4Br)ncnc32)[C@@H](O)[C@@H]1O [6-(2-bromobenzylamino)-9-β-D-arabinofuranosylpurine], the maximum effective concentration [5] was 10^−5 mol · l^−1.
For OC[C@H]1O[C@@H](n2cnc3c(NCc4ccc(Cl)cc4Cl)ncnc32)[C@H](O)[C@@H]1O [6-(2,4-dichlorbenzylamino)-9-riboside, reference compound], the “activity (%) [10^−4 mol · l^−1 BAP = 100%]” value ([5]; chlorophyll content at the maximum effective concentration, 96 h in the dark) was 5 ± 1%.
With OC[C@H]1O[C@@H](n2cnc3c(NCc4ccco4)ncnc32)[C@@H](O)[C@@H]1O [6-furfurylamino-9-β-D-arabinofuranosylpurine] the maximum effective concentration [5] was 10^−4 mol · l^−1.
